Reference: PubChem BioAssay AID330 (DTP/NCI, 2004)
“And” between values parts separate entries of the source, which are not always exact repeats. Equal entries are not always repeated. Toxic doses and inconclusive results are not listed.

Test system: P388 leukemia ip, CD2F1 mice, survival T/C
Experiment: NCI In Vivo Anticancer Drug Screen. Data for tumor model P388 Leukemia (intraperitoneal) in CD2F1 (CDF1) mice
Details: endpoint: median survival time, higher = longer survival
In short: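 Mice carrying the transplanted tumor received test compound or vehicle. Survival was recorded in each group, and the value is the treated-group measurement divided by that of the vehicle-treated control group.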

[1] = dose: 50.0 mg/kg/injection, schedule: Q01DX009 (ip), vehicle: saline
[2] = dose: 100.0 mg/kg/injection, schedule: Q01DX009 (ip), vehicle: saline
[3] = dose: 200.0 mg/kg/injection, schedule: Q01DX009 (ip), vehicle: saline
[4] = dose: 50.0 mg/kg/injection, schedule: Q01DX009 (ip), vehicle: saline with Tween-80
[5] = dose: 100.0 mg/kg/injection, schedule: Q01DX009 (ip), vehicle: saline with Tween-80
[6] = dose: 200.0 mg/kg/injection, schedule: Q01DX009 (ip), vehicle: saline with Tween-80
[7] = dose: 50.0 mg/kg/injection, schedule: Q01DX009 (ip), vehicle: Klucel (hydroxypropylcellulose) (HPC)
[8] = dose: 100.0 mg/kg/injection, schedule: Q01DX009 (ip), vehicle: Klucel (hydroxypropylcellulose) (HPC)
[9] = dose: 200.0 mg/kg/injection, schedule: Q01DX009 (ip), vehicle: Klucel (hydroxypropylcellulose) (HPC)
[10] = dose: 50.0 mg/kg/injection, schedule: Q01DX005 (ip), vehicle: Klucel (hydroxypropylcellulose) (HPC)
[11] = dose: 100.0 mg/kg/injection, schedule: Q01DX005 (ip), vehicle: Klucel (hydroxypropylcellulose) (HPC)
[12] = dose: 200.0 mg/kg/injection, schedule: Q01DX005 (ip), vehicle: Klucel (hydroxypropylcellulose) (HPC)

For `O=C1NCC(=O)C(=O)N1`, the T/C [1] was 100 % of control and 106 % of control, the T/C [2] was 101 % of control and 103 % of control and the T/C [3] was 100 % of control and 110 % of control. For the same compound, the T/C (dose: 400.0 mg/kg/injection, schedule: Q01DX009 (ip), vehicle: saline) was 103 % of control and 105 % of control.

For `O=C(O)C(Cl)(c1ccccc1)C(Cl)c1ccccc1` (stereo not drawn), the T/C [4] was 104 % of control, the T/C [5] was 95 % of control and the T/C [6] was 100 % of control.

In the case of `CCn1c2ccccc2c2cc(N)c(N=Nc3ccc([N+](=O)[O-])c(OC)c3)cc21`, the T/C [7] was 104 % of control, the T/C [8] was 104 % of control and the T/C [9] was 105 % of control.

`COC(=O)C(CCl)NC(C)=O` (stereo not drawn) was tested, and the T/C (dose: 50.0 mg/kg/injection, schedule: Q01DX005 (ip), vehicle: saline) was 97 % of control, the T/C (dose: 100.0 mg/kg/injection, schedule: Q01DX005 (ip), vehicle: saline) was 100 % of control and the T/C (dose: 200.0 mg/kg/injection, schedule: Q01DX005 (ip), vehicle: saline) was 101 % of control.

With `CCN1CC2(COC)CCC(OC)C34C5CC6C(OC)CC(O)(C5C6O)C(O)(C(OC)C23)C14` (stereo not drawn) the T/C (dose: 3.75 mg/kg/injection, schedule: Q01DX005 (ip), vehicle: saline + alcohol) was 96 % of control, the T/C (dose: 7.5 mg/kg/injection, schedule: Q01DX005 (ip), vehicle: saline + alcohol) was 100 % of control and the T/C (dose: 15.0 mg/kg/injection, schedule: Q01DX005 (ip), vehicle: saline + alcohol) was 102 % of control. The T/C (dose: 30.0 mg/kg/injection, schedule: Q01DX005 (ip), vehicle: saline + alcohol) was 92 % of control and the T/C (dose: 60.0 mg/kg/injection, schedule: Q01DX005 (ip), vehicle: saline + alcohol) was 99 % of control.

In the case of `FC(F)(F)c1ccc(NC(=S)SCc2ccc(Cl)cc2)cc1`, the T/C (dose: 50.0 mg/kg/injection, schedule: Q01DX009 (ip), vehicle: suspension in saline) was 90 % of control, the T/C (dose: 100.0 mg/kg/injection, schedule: Q01DX009 (ip), vehicle: suspension in saline) was 100 % of control and the T/C (dose: 200.0 mg/kg/injection, schedule: Q01DX009 (ip), vehicle: suspension in saline) was 108 % of control.

With `c1ccc(C2=NCC(c3ccccc3)(C3(c4ccccc4)SCCCS3)O2)cc1` (stereo not drawn) the T/C (dose: 100.0 mg/kg/injection, schedule: Q04DX003 (ip), vehicle: saline with Tween-80) was 95 % of control, the T/C (dose: 200.0 mg/kg/injection, schedule: Q04DX003 (ip), vehicle: saline with Tween-80) was 97 % of control and the T/C (dose: 400.0 mg/kg/injection, schedule: Q04DX003 (ip), vehicle: saline with Tween-80) was 91 % of control.

`c1ccc(C23OOC(c4ccccc4)(c4ccccc42)c2ccccc23)cc1` was tested, and the T/C (dose: 5.0 mg/kg/injection, schedule: Q01DX001 (ip), vehicle: Klucel (hydroxypropylcellulose) (HPC)) was 96 % of control, the T/C (dose: 10.0 mg/kg/injection, schedule: Q01DX001 (ip), vehicle: Klucel (hydroxypropylcellulose) (HPC)) was 96 % of control and the T/C (dose: 20.0 mg/kg/injection, schedule: Q01DX001 (ip), vehicle: Klucel (hydroxypropylcellulose) (HPC)) was 89 % of control.

In the case of `CN1C(=O)NC(C)(c2cccc(N(CCCl)CCCl)c2)C1=O` (stereo not drawn), the T/C [7] was 158 % of control, the T/C [8] was 177 % of control and the T/C [9] was 160 % of control and 205 % of control.

With `COc1cccc(CCN2C(=O)CCC3=C2CCC3=O)c1` the T/C (dose: 25.0 mg/kg/injection, schedule: Q01DX005 (ip), vehicle: Klucel (hydroxypropylcellulose) (HPC)) was 94 % of control, the T/C [10] was 105 % of control and the T/C [11] was 102 % of control. The T/C [12] was 98 % of control.

With `CCOc1c(N=Nc2ccccc2OC)c(C)nn1C(N)=S` the T/C (dose: 3.75 mg/kg/injection, schedule: Q01DX005 (ip), vehicle: Klucel + Tween-80) was 100 % of control, the T/C (dose: 7.5 mg/kg/injection, schedule: Q01DX005 (ip), vehicle: Klucel + Tween-80) was 94 % of control and the T/C (dose: 15.0 mg/kg/injection, schedule: Q01DX005 (ip), vehicle: Klucel + Tween-80) was 99 % of control and 105 % of control.

For `CCOc1c(N=Nc2ccccc2Cl)c(C)nn1C(=S)SC`, the T/C (dose: 60.0 mg/kg/injection, schedule: Q01DX005 (ip), vehicle: Klucel + Tween-80) was 103 % of control, the T/C (dose: 120.0 mg/kg/injection, schedule: Q01DX005 (ip), vehicle: Klucel + Tween-80) was 112 % of control and the T/C (dose: 240.0 mg/kg/injection, schedule: Q01DX005 (ip), vehicle: Klucel + Tween-80) was 103 % of control.

In the case of `Clc1ccc(-c2n[nH]c3c2Cc2ccccc2-3)cc1Cl`, the T/C [10] was 97 % of control, the T/C [11] was 91 % of control and the T/C [12] was 98 % of control.

For `Cn1c(C2(C)C(=O)NC(=O)c3cnccc32)cc2ccccc21` (stereo not drawn), the T/C (dose: 100.0 mg/kg/injection, schedule: Q04DX002 (ip), vehicle: Klucel (hydroxypropylcellulose) (HPC)) was 103 % of control and the T/C (dose: 200.0 mg/kg/injection, schedule: Q04DX002 (ip), vehicle: Klucel (hydroxypropylcellulose) (HPC)) was 92 % of control.

`CCCC(CCC)=NCCN=C(CCC)CCC` was tested, and the T/C [1] was 100 % of control, the T/C (dose: 50.0 mg/kg/injection, schedule: Q04DX003 (ip), vehicle: saline) was 95 % of control and the T/C [2] was 100 % of control. For the same compound, the T/C (dose: 100.0 mg/kg/injection, schedule: Q04DX003 (ip), vehicle: saline) was 95 % of control, the T/C [3] was 104 % of control and the T/C (dose: 200.0 mg/kg/injection, schedule: Q04DX003 (ip), vehicle: saline) was 91 % of control.

In the case of `N=C1C=CC2C(=Nc3ccccc3[N+]2=O)N1Cc1ccncc1` (stereo not drawn), the T/C (dose: 60.0 mg/kg/injection, schedule: Q01DX005 (ip), vehicle: saline with Tween-80) was 98 % of control, the T/C (dose: 120.0 mg/kg/injection, schedule: Q01DX005 (ip), vehicle: saline with Tween-80) was 90 % of control and the T/C (dose: 240.0 mg/kg/injection, schedule: Q01DX005 (ip), vehicle: saline with Tween-80) was 98 % of control.

With `O=c1ccc2cc3c(c(O)c2o1)OC=CC3` the T/C [7] was 98 % of control and the T/C [8] was 94 % of control.

In the case of `O=C1CCC(C(Sc2ccccc2)(Sc2ccccc2)Sc2ccccc2)C1` (stereo not drawn), the T/C [7] was 97 % of control, the T/C [8] was 90 % of control and the T/C [9] was 89 % of control.

For `OCC(O)CO`, the T/C (dose: 0.5 % in 0.5 ml injection vol, schedule: Q01DX009 (ip), vehicle: water) was 100 % of control, the T/C (dose: 1.0 % in 0.5 ml injection vol, schedule: Q01DX009 (ip), vehicle: water) was 93 % of control and the T/C (dose: 2.0 % in 0.5 ml injection vol, schedule: Q01DX009 (ip), vehicle: water) was 99 % of control and 105 % of control. For the same compound, the T/C (dose: 4.0 % in 0.5 ml injection vol, schedule: Q01DX009 (ip), vehicle: water) was 105 % of control and 111 % of control, the T/C (dose: 8.0 % in 0.5 ml injection vol, schedule: Q01DX009 (ip), vehicle: water) was 104 % of control and 94 % of control and the T/C (dose: 16.0 % in 0.5 ml injection vol, schedule: Q01DX009 (ip), vehicle: water) was 101 % of control and 102 % of control.

For `CCCNC(=S)N/N=C(/C)CC/C(C)=N/NC(=S)NCCC`, the T/C (dose: 12.5 mg/kg/injection, schedule: Q01DX009 (ip), vehicle: saline) was 98 % of control, the T/C (dose: 25.0 mg/kg/injection, schedule: Q01DX009 (ip), vehicle: saline) was 99 % of control and the T/C [1] was 104 % of control and 86 % of control.

With `C#CC(O)C1CC1` (stereo not drawn) the T/C (dose: 100.0 mg/kg/injection, schedule: Q01DX001 (ip), vehicle: saline + Tween-80 + alcohol) was 101 % of control.

In the case of `CCC1COCC1Cc1cncn1C` (stereo not drawn), the T/C (dose: 60.0 mg/kg/injection, schedule: Q01DX005 (ip), vehicle: saline) was 100 % of control and the T/C (dose: 120.0 mg/kg/injection, schedule: Q01DX005 (ip), vehicle: saline) was 103 % of control.

`C=CCn1nnc(N)n1` was tested, and the T/C (dose: 100.0 mg/kg/injection, schedule: Q04DX003 (ip), vehicle: Klucel (hydroxypropylcellulose) (HPC)) was 111 % of control, the T/C (dose: 200.0 mg/kg/injection, schedule: Q04DX003 (ip), vehicle: Klucel (hydroxypropylcellulose) (HPC)) was 109 % of control and the T/C (dose: 400.0 mg/kg/injection, schedule: Q04DX003 (ip), vehicle: Klucel (hydroxypropylcellulose) (HPC)) was 105 % of control.

For `CC(C)(C)c1cc(OS(=O)(=O)C(F)(F)C(F)(F)C(F)(F)C(F)(F)F)cc(C(C)(C)C)c1`, the T/C [4] was 106 % of control, the T/C [5] was 108 % of control and the T/C [6] was 108 % of control.

With `CCOP(=Nc1cc(C)ccc1C)(OCC)OCC` the T/C (dose: 12.5 mg/kg/injection, schedule: Q01DX009 (ip), vehicle: Klucel (hydroxypropylcellulose) (HPC)) was 100 % of control, the T/C (dose: 25.0 mg/kg/injection, schedule: Q01DX009 (ip), vehicle: Klucel (hydroxypropylcellulose) (HPC)) was 94 % of control and the T/C (dose: 50.0 mg/kg/injection, schedule: Q01DX001 (ip), vehicle: Klucel (hydroxypropylcellulose) (HPC)) was 103 % of control. The T/C [7] was 103 % of control and 93 % of control, the T/C (dose: 100.0 mg/kg/injection, schedule: Q01DX001 (ip), vehicle: Klucel (hydroxypropylcellulose) (HPC)) was 100 % of control and the T/C (dose: 200.0 mg/kg/injection, schedule: Q01DX001 (ip), vehicle: Klucel (hydroxypropylcellulose) (HPC)) was 96 % of control.
